According to article PMC9964746, “Mechanism of Action and Structure–Activity Relationships of Tetracyclic Small Molecules Acting as Universal Positive Allosteric Modulators of the Cholecystokinin Receptor” (Membranes, 2023):
“And” between values parts separate entries of the source, which are not always exact repeats. Equal entries are not always repeated.

Columns and labels:
Assay type in all cases: cell-based
[1] = molecular target: T1, vasopressin-2 receptor (AVP2R) (Homo sapiens, UniProt P30518); assay: AVP2R cAMP HTRF accumulation assay; details: for EC50 / Emax: PAM format with vasopressin, original hits: agonist and PAM data combined, average ± SD
T1 construct: expressed in transfected cells; host or cells: CHO-K1 (PAM format); HEK-293 (agonist format)
T1 sequence (P30518 whole entry): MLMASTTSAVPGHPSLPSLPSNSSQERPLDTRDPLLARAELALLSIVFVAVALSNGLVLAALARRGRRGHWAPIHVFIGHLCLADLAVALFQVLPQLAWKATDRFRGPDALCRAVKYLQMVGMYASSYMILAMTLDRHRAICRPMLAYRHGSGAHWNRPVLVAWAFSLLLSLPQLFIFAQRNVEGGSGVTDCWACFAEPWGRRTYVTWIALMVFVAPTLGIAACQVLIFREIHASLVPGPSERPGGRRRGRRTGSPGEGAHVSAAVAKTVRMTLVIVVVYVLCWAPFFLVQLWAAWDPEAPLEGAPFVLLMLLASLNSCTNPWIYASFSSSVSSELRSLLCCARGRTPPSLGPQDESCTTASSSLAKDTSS
Summary of the method: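 Readout is HTRF cAMP detection (30 min, room temperature) following 30 min compound exposure with vasopressin stimulation, using HEK-293 cells for agonist mode and CHO-K1 cells for PAM mode, both overexpressing AVP2R, in IBMX-containing HBSS/HEPES buffer. Curves: 16 points, 2-fold steps, duplicate, ≥2 experiments.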

CCK1R [2] = molecular target: T2, CCK1R (Homo sapiens, UniProt P32238); assay: IP-One accumulation TR-FRET assay, agonist format, HEK-293 CCK1R cells; parameters: expressed in transfected cells; host or cells: HEK-293; details: for Emax: HEK293, relative to CCK control, read-out: CCK1R Ago (IP-One) Emax; for Emax / EC50: average ± SD; for EC50: read-out: CCK1R Ago (IP-One) EC50
T2 sequence (P32238 1-428): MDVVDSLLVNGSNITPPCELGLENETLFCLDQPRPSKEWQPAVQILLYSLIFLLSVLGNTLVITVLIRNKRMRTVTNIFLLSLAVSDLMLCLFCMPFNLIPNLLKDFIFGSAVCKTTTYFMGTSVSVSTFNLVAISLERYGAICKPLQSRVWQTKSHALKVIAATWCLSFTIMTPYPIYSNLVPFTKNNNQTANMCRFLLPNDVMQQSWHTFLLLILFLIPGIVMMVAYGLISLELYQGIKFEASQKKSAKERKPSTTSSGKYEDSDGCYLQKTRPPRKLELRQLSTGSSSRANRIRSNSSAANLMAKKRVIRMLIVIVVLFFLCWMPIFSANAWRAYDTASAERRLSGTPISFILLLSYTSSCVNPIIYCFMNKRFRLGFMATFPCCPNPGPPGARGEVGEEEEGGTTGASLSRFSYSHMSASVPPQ
Summary of the method: (§1)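 HEK-293 cells overexpressing CCK1R were plated overnight, then given compounds (top 50 µM, 16-point 2-fold) for 30 min at 37 °C. CCK stimulator with 50 mM LiCl (PAM format) or DMSO (agonist format) followed for 1 h. IP-One was read by TR-FRET; activity score = CCK-normalized Emax × pEC50.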

CCK1R [3] = molecular target: T2, CCK1R; assay: IP-One accumulation TR-FRET assay, PAM format, HEK-293 CCK1R cells; parameters: expressed in transfected cells; host or cells: HEK-293; details: for Emax: HEK293, relative to CCK control; for Emax / CCK1R PAM (IP-One) Score (activity score = normalized Emax × pEC50) / EC50: HEK-293 CCK1R cells; for Emax / CCK1R PAM (IP-One) Score (activity score = normalized Emax × pEC50): PAM format; for Emax / EC50: average ± SD; for CCK1R IP-One activity (in words): PAM and agonist formats; for EC50: PAM format with EC20 CCK
Summary of the method: as §1

Row | Structure (SMILES) | AVP2R PAM (cAMP) Score (activity score = normalized Emax × pEC50) ([1]; CHO-K1 AVP2R cells, PAM format) | EC50 ([1]; CHO-K1 AVP2R cells) | Emax ([1]; CHO-K1 AVP2R cells) | CCK1R Ago (IP-One) Score (activity score = normalized Emax × pEC50) (CCK1R [2]) | Emax (CCK1R [2]) | Emax (CCK1R [3]) | CCK1R PAM (IP-One) Score (activity score = normalized Emax × pEC50) (CCK1R [3]) | CCK1R IP-One activity (in words) (CCK1R [3]) | EC50 (CCK1R [3]) | AVP2R cAMP response (in words) ([1]; PAM format) | EC50 (CCK1R [2]) | Emax ([1]; CHO-K1, CHO-K1 AVP2R cells)
1 | O=C(O)CSc1ncnc2c1sc1nc(N3CCOCC3)c3c(c12)CCCC3 [CMP-45] | 1.46 | 37.9 ± 7 µM | 33 ± 13% | 0 | 0% | 0% | 0 | displayed no effects | – | – | – | –
2 | C/C(Br)=C\CSc1ncnc2c1sc1nc(N3CCOCC3)c3c(c12)CCCC3 [CMP-44] | 0 | – | 0% | 0 | 0% | 0% | 0 | displayed no effects | – | – | – | –
3 | c1ccc(CCNc2ncnc3c2sc2nc(N4CCOCC4)c4c(c23)CCCC4)cc1 [CMP-42] | 0 | – | 0% | 0 | 0% | 0% | 0 | None of these analogs showed any CCK1R activity | – | – | – | –
4 | CCN(CC)c1ncnc2c1sc1nc(N3CCOCC3)c3c(c12)CCCC3 [CMP-46] | 0 | – | 0% | 0 | 0% | 0% | 0 | significantly diminished responses | – | – | – | –
5 | O=C(CSc1ncnc2c1sc1nc(N3CCOCC3)c3c(c12)CCCC3)Nc1ccc(Br)cc1 [CMP-41] | 0 | – | 0% | 0 | 0% | 0% | 0 | – | – | – | – | –
6 | CC(C)Cc1nc2oc3c(N4CCNCC4)ncnc3c2c2c1CCCC2 [CMP-15] | 2.97 | 7.3 ± 3.3 µM | 58 ± 15% | 0 | – | 43 ± 3% | 2.04 | – | 17.8 ± 6.2 µM | – | – | –
7 | COCCNc1ncnc2c1sc1nc(N3CCOCC3)c3c(c12)CCCC3 [CMP-47] | 0 | – | 0% | 0 | 0% | 0% | 0 | None of these analogs showed any CCK1R activity | – | – | – | –
8 | COc1ccc(NC(=O)CSc2ncnc3c2sc2nc(N4CCOCC4)c4c(c23)CCCC4)cc1 [CMP-40] | 5.33 | 2.9 ± 0.1 µM | 96 ± 9% | 0 | 0% | 0% | 0 | – | – | strong activation of AVP2R-mediated cAMP accumulation | – | –
9 | CN(C)CCNc1nnnc2c1sc1nc(N3CCCCC3)c3c(c12)CCCC3 [CMP-27] | 3.5 and 3.51 | 9.1 ± 1 µM | 70 ± 4% | 0 | 0% | 38 ± 14% | 1.7 | – | 18.4 ± 8.1 µM | – | – | –
10 | CCN(CC)CCNc1ncnc2c1sc1nc(N3CCCCC3)c3c(c12)CCCC3 [CMP-6] | 1.7 and 1.67 | 9.9 ± 0.5 µM | 33 ± 1% | 0 | 0% | 57 ± 27% | 2.6 and 2.58 | – | 13.8 ± 3.2 µM | – | – | –
11 | CC(C)Cc1nc2oc3c(NCCCN(C)C)ncnc3c2c2c1CCC2 [CMP-13] | 1.4 and 1.35 | 12.6 ± 7.9 µM | 28 ± 14% | 0 | – | 52 ± 36% | 2.2 and 2.23 | – | 11.2 ± 4.2 µM | – | – | –
12 | CN(C)CCNc1ncnc2c1sc1nc(-c3ccccc3)c3c(c12)CCCC3 [CMP-14] | 3.0 and 2.97 | 4.7 ± 4.1 µM | 56 ± 33% | 0.72 | 17 ± 5% | 44 ± 10% | 2.17 | – | 8.9 ± 1.7 µM | – | 29.7 ± 8 µM | –
13 | OCCNc1ncnc2c1sc1nc(N3CCOCC3)c3c(c12)CCCC3 [CMP-49] | 0 | – | – | 0 | 0% | 0% | 0 | None of these analogs showed any CCK1R activity | – | – | – | 0%
14 | CCCc1nc2oc3c(NCCCN(CC)CC)ncnc3c2c2c1CCCC2 [CMP-36] | 1.41 | 6.1 ± 2.8 µM | 27 ± 20% | 0 | – | 25 ± 10% | 1.32 | – | 3.3 ± 5.4 µM | – | – | –
15 | NCCNc1ncnc2c1sc1nc(N3CCCCC3)c3c(c12)CCCC3 [CMP-22] | 2.9 and 2.92 | 2.7 ± 0.7 µM | 52 ± 4% | 2.76 | 60 ± 4.5% | 39 ± 11% | 1.9 and 1.87 | – | 12.2 ± 4.6 µM | – | 26.9 ± 1.1 µM | –
16 | CC(C)Cc1nc2oc3c(NCCN(C)C)ncnc3c2c2c1CCC2 [CMP-21] | 1.7 and 1.74 | 22.8 ± 3.8 µM | 37 ± 4% | 0 | – | 45 ± 23% | 1.9 | – | 23.8 ± 10.5 µM | – | – | –
17 | CN(C)CCNc1ncnc2c1sc1nc(N3CCCCC3)c3c(c12)CCCC3 [CMP-35] | 1.6 and 1.59 | 7.9 ± 2.5 µM | 31% | 0 | 0% | 36 ± 20% | 1.5 and 1.49 | – | 31.3 ± 14.9 µM | – | – | –
